{"source": "patent US20230348394A1", "about": "“COMPOSITIONS AND METHODS FOR TREATING MUSCULAR DYSTROPHIES” (The Regents of the University of California, priority 2020, published 2023)", "key": {"[1]": {"assay": "Preliminary safety assessment, IP injection in C57/B16 mice", "format": "in vivo", "experimental": "(§1) For the preliminary safety assessment of OT-9, we performed IP injections in 6 month old C57/B16 males. The mice were injected with 100 μl of vehicle (5% DMSO (Sigma), 95% PBS), 100 μl of 30 mg/kg of OT-9 in vehicle, or 100 μl of 50 mg/kg of OT-9 in vehicle (n=1 mouse per treatment). […] For assessment of activity, 20-weeks old male mdx littermates were injected in both tibialis anterior muscles with vehicle (5% DMSO, 95% PBS) or 86 μg of OT-9. Two mice were injected in both TAs with vehicle and three mice were injected in both TAs with 200 of OT-9 (9.4 mM solution containing 86 μg of OT-9). After 4 hours, the muscles were harvested and processed for gene expression analysis. For assessment of activity of OT-9m after local administration, 19-22-weeks old mdx males were injected in both tibialis anterior muscles with vehicle (5% DMSO, 95% PBS) or 3 mg/kg and 10 mg/kg of OT-9m. After 4 hours, the muscles were harvested and processed for gene expression analysis. For assessment of activity of OT-9m after systemic administration, 13-weeks old mdx males were injected subcutaneously with vehicle (4% PEG-200 in hydroxypropyl-b-cyclodextrin) or 20 mg/kg/day of OT-9m. After 13 days of treatment, the muscles were harvested and processed for gene expression analysis.\nTo evaluate the in vivo safety and activity of OT-9, we performed two pilot studies in wild-type C57/B16 and mdx mice. For the preliminary safety assessment of OT-9, we performed IP injections in 6-month old C57/B16 males. The mice were injected with vehicle, 30 mg/kg of OT-9, or 50 mg/kg of OT-9 (n=1)."}, "[2]": {"tested_on": "membrane-associated utrophin", "assay": "Cell surface protein biotinylation and utrophin immunoblot, mdx myotubes", "format": "cell-based, murine", "conditions": "5 μM, 48 hours", "experimental": "Myotubes treated for 48 hrs were lysed using RIPA buffer (Thermo Fisher Scientific) containing Halt Protease Inhibitor Cocktail (Thermo Fisher Scientific). Cell lysates in RIPA buffer were rocked for 1 hr at 4° C. and centrifuged at 1,000 RPM for 30 mins at 4° C. The supernatant was collected, quantified for protein concentration using the DC protein assay (Bio-Rad), and normalized to 2 mg/ml in water and Laemmli sample buffer with a final concentration of 10% glycerol (Sigma-Aldrich), 5% beta-mercaptoethanol (Sigma-Aldrich), 3% sodium dodecyl sulfate (Sigma-Aldrich), and 0.05% bromophenol blue (Sigma-Aldrich). For SDS-PAGE, samples were heated to 95° C. for 2 mins before loading 40 μg onto 4-12% tris-glycine or bis-tris polyacrylamide gels (Novex), electrophoresed for 2 hrs at 100 volts at RT, and transferred to a nitrocellulose membrane for 2 hrs at 100 volts at 4° C. Ponceau S staining was performed to visualize protein loading and verify protein transfer. […] Autoradiography films were developed using a SRX-101A tabletop processor (Konica Minolta), scanned to a digital file, and analyzed by densitometry of bands using ImageJ version 1.51 s. […]"}, "SSPN gene expression": {"tested_on": "SSPN gene expression", "assay": "SSPN gene expression in tibialis anterior after intramuscular injection in mdx mice", "format": "in vivo", "conditions": "4 hours", "experimental": "as §1\nAfter the preliminary safety evaluation, we tested the ability of OT-9 to increase SSPN gene expression in vivo. […] Five 20-weeks old male mdx littermates were subjected to intramuscular injections in both tibialis anterior (TA) muscles. Two mice were injected in both TAs with vehicle and […] were injected with 3 mg/kg of OT-9 (molar equivalent of 9.4 mM used in the safety assessment). After 4 hours of treatment, the TAs were harvested and processed for gene expression analysis. […] After determination that OT-9 is capable of increasing SSPN gene expression in vivo, we evaluated one of its derivatives, OT-9m, for its ability to increase SSPN expression in mdx mice. OT-9m was chosen based on its improved activity in vitro compared to OT-9 (compare, Table 1, entries 1 & 14). To assess activity OT-9m in vivo after local administration, eleven 19-22 weeks old male mdx mice were subjected to intramuscular injections in both tibialis anterior (TA) muscles. Four mice were injected in both TAs with vehicle, three mice were injected with 3 mg/kg of OT-9m and four mice were injected with 10 mg/kg of OT-9m. After 4 hours of treatment, the TAs were harvested and processed for gene expression analysis."}, "[3]": {"conditions": "IP 30 mg/kg or 50 mg/kg, observed 72 hours, n=1"}}, "data": [{"smiles": "CCN(CC)c1ccc2cc(C(=O)Nc3ccc(C(=O)N4CCCCCC4)cc3)c(=O)oc2c1", "note": "[OT-9]", "values": [{"measurement": "appearance of the dosing solution", "setting": "[1]; 50 mg/kg solution in 5% DMSO, 95% PBS", "result": "some insoluble particles were observed"}, {"measurement": "liver, kidneys, pancreas and intestine", "setting": "[1]; [3]", "result": "normal weight and size"}, {"measurement": "observation of the injection site", "setting": "[1]; [3]", "result": "No signs of inflammation, necrosis or compound accumulation"}, {"measurement": "increase in membrane-associated utrophin protein", "setting": "[2]", "result": 1.6, "unit": "fold"}, {"measurement": "increase in SSPN gene expression relative to the vehicle control-treated group", "setting": "SSPN gene expression; 3 mg/kg intramuscular, tibialis anterior", "result": 1.7, "unit": "fold"}, {"measurement": "adverse effects after local injection", "setting": "SSPN gene expression; OT-9 3 mg/kg intramuscular, both TA", "result": "No adverse effects"}]}]}
